Laboratory results: patent US6897298B2, “Method for extracting a compound from a ginseng spp. plant, ginseng or pseudo-ginseng” (priority 2001, dated 2005)
Where two headings read alike, the source gives them in different places.

Legend:
[1] = test system: cerebral arteria embolisms/reperfusion injury rat model; test: Measurement of area of cerebral embolisms (TTC staining) after cerebral ischemia/reperfusion; type: in vivo
Experimental: (§1) Prepare cerebral arteria embolisms/reperfusion injury rat model according to Longna method. To bring the animal into a state of narcosis, give an intravenous injection of urethane (0.4 ml/100 g weight). Maintain body temperature of the rat at 37±0.5° C. (anal temperature). Let the rat lie on a plate with face toward the ceiling. Make a cut at the right middle of its neck. By means of microsurgery techniques, separate left neck communis and its branches. Isolate arteria carotis externa. By means of electric solidification, cut off occipital arteria, thyroid superia gland arteria, and arteria phyrynix externa, all of which are setting out from arteria carotis externa. Isolate arteria carotis externa further towards the head end. Tie the arteria carotis externa at a place as far as possible. Clamp the beginning part of the arteria carotis externa to make it close with an artery clamp. Tie a loose knot (with 5-0 silk thread going through the arteria carotis externa) at a place between the artery clamp and the tying thread. […]
Open the cranium and take the whole brain. […] The area of obstructed cerebral tissue was measured with a fully automatic image analysis system (Model IPAS-C, Kontror Co, Germany). […] For this experiment, the average value of those measured of slices 2 and 3 were taken as the measured result for each animal's area of obstruction. […]

[2] = test system: cerebral arteria embolisms/reperfusion injury rat model; test: Scanning record of electroencephalogram after cerebral ischemia/reperfusion; type: in vivo; details: 1 h block
Experimental: as §1, with “thread. At a place close to the knot, cut to block the arteria carotis externa.” for “thread.”
One needle-type electrode was placed at top forehead. […] Electroencephalogram change outside of skin before and after obstruction was recorded with 8-lead physiological recorder made by Japan Optical-Electric Co.

[3] = test system: cerebral arteria embolisms/reperfusion injury rat model; test: Pathological exam of nerve cells and nerve fibers (HE, myelin staining); type: in vivo; details: iv 50 mg/kg, 10 mg/kg and 2 mg/kg; dosage-dependent
Experimental: as §1, with “thread. At a place close to the knot, cut to block the arteria carotis externa. Put into the arteria carotis externa a 3-0 nylon thread, which is 5 cm long and has a drumstick-like head. Tie a fast knot on the silk thread on the arteria crotis externa to avoid bleeding. Remove the arteria clamp. Push the nylon thread slowly into the arteria carotis externa.” for “thread.”

[4] = test system: cerebral arteria embolisms/reperfusion injury rat model; test: Behavior change score (Longa method); type: in vivo; details: 5 hours after reperfusion
Experimental: as §1, with “thread. At a place close to the knot, cut to block the arteria carotis externa. Put into the arteria carotis externa a 3-0 nylon thread, which is 5 cm long and has a drumstick-like head. Tie a fast knot on the silk thread on the arteria crotis externa to avoid bleeding. Remove the arteria clamp. Push the nylon thread slowly into the arteria carotis externa.” for “thread.”

[5] = test system: cerebral ischemia/reperfusion injury rats; test: SOD activity in cerebral tissue homogenate (pyrogallol self-oxidation method); type: in vivo, rat; details: Compound (I) 50 mg/kg, Nimodipine 40 μg/kg iv; 5 h after reperfusion; normal 70.30±24.7 u/g, salt-water 46.7±16.6 u/g
Experimental: 38 rats were used. After making cerebral ischemia/reperfusion injury, the rats were randomly divided into groups of contrast (equal volume of physiological salt-water), Nimodipine treatment (40 μg/kg), and Compound (I) treatment (50 mg/kg). […] After another 5 minutes, drug was given iv under tongue. 60 minutes after cerebral ischemia was made, reperfusion was made. After another 5 hours, rat brains were stripped off rapidly according to Gotoh Method. Right and left brain hemispheres were weighed respectively, and were kept in fridge at −70° C.
The tissue to be measured (about 0.3˜0.5) were washed clean with physiological salt-water. Then cold distilled water was used to prepare homogenate on a glass blender. Then centrifugal machine was set at 1,500 rpm to work for 15 minutes, the temperature being 0° C. […]
(1) SOD measurement (pyrogallol self-oxidation method): Take a 15 ml test tube. […] Change of absorbance is measured under conditions of: ultra-violet spectrophotometer (UV 1601 PC, Shimatsu Co., Japan), wavelength of 325 nm, and slit of 2. Then activity units are calculated according to the following formula: Tissue homogenate SOD(u/g cerebral tissue)=(control tube−sample tube)/control tube/0.5×1/cerebral tissue weight (g)

[6] = test system: cerebral ischemia/reperfusion injury rats; test: MDA content in cerebral tissue homogenate (TBA method); type: in vivo, rat; details: Compound (I) 50 mg/kg, Nimodipine 40 μg/kg iv; 5 h after reperfusion; salt-water group 87.7±27.5; p>0.05 vs normal group
[7] = test system: cerebral arteria embolisms/reperfusion injury rat model; test: Measurement of water content in brain tissue; type: in vivo; details: Compound (I) intravenous injection
Acute toxicity test = details: in vivo, Mouse
Description: Results of acute toxicity test for Compound (I) were: […]

[8] = Three kinds of experiments (disability, cancer, mutation)
Description: Therefore, its cure effects are good.

[9] = Physical and chemical properties: solubility; type: physicochemical; details: substance obtained in Example 1
Experimental: Physical and chemical property tests and element analysis were carried out for the substance. Also done were its mass spectra, infrared and ultraviolet spectrum, ^1H and ^13C nuclear magnetic resonance tests. The conditions and results were:
Physical and chemical properties: white or a little yellow powder. Melting point—209˜214° C.

Rats = details: for toxicity finding: iv 14 days

SMILES	embolism (infarction) area of cerebral tissue ([1]; Compound (I) 2˜50 mg/kg iv, 1 h ischemia, 5 h after reperfusion, dosage dependent)	cure effects compared with Nimodipine ([1]; iv 50, 10 and 2 mg/kg, overall conclusion over all indexes)	amplitude of electroencephalogram ([2]; 2 mg/kg dosage, 5 h after reperfusion)	amplitude of electroencephalogram ([2]; 50 mg/kg and 10 mg/kg, 5 h after reperfusion (p<0.01))	degree of denaturalization of nerve fibers [3]	number of nerve cells of necrosis [3]	behavior obstruction caused by cerebral injuries [4]	SOD activity compared with normal contrast group (false surgery) [5]	MDA content [6] [nmol/mg tissue weight]	water content increase of cerebral tissue in blocked area [7]	LD50 (Acute toxicity test; im, intramuscular injection, 95% confidence margin 564.77˜603.79 mg/kg) [mg/kg]	LD50 (Acute toxicity test; intravenous injection, 95% confidence margin 346.01˜366.64 mg/kg) [mg/kg]	causes disability, cancer, and mutation [8]	solubility [9]	toxicity finding (Rats; 100 mg/kg)	toxicity finding (Rats; 10 and 30 mg/kg)	main toxic finding (Rats; iv injection for 14 days, injury correlated positively with dosage)	behavior scores (0-5) ([4]; salt-water contrast group 3.3±1.0, p>0.05) [scores]
CC(C)=CCC[C@](C)(OCC1OC(CO)C(O)C(O)C1O)C1CC[C@]2(C)C1[C@H](O)CC1[C@@]3(C)CC[C@H](OC4OC(CO)C(O)C(O)C4OC4OC(CO)C(O)C(O)C4O)C(C)(C)C3CC[C@]12C (stereo partly drawn) [Compound (I), 20-(S)-protopanaxadiol-3-[O-β-D-glucopyranosyl (1→2)-β-D-glucopyranosyl]-20-O-β-D-glucopyranoside]	could decrease embolism area of cerebellum tissue	better than that of active contrast drug Nimodipine	tendency of improvement of electroencephalogram, but there was no significant statistics difference	could improve electroencephalogram significantly	could relieve the degree of denaturalization of nerve fibers	could decrease the number of nerve cells of necrosis	could be significantly relieved	no significant statistics difference	65.8±19	could significantly lower water content increase of cerebral tissue in blocked area	584	356	does not have these side effects	Very easy to dissolve in lower alcohol, acetone, chloroform, and hot water	poisonous dosage	minor local stimulation	inflammation of tail vein inner membrane	
COCCOC(=O)C1=C(C)NC(C)=C(C(=O)OC(C)C)C1c1cccc([N+](=O)[O-])c1 (stereo not shown) [Nimodipine, reference compound]									67.0±21.8									2.9±1.2
